Data on 4 molecules can be found in patent US11845828B2, “Polymerizable composition for optical material, optical material, and producing method thereof” (Mitsui Chemicals, Inc., priority 2016, dated 2023).

By pKa is commonly meant the negative logarithm of the acid dissociation constant.

This data set is described as follows: pKa value (acid dissociation index) of compound (A).
`Clc1cccnc1` [Example A3, 3-chloropyridine] yielded a pKa of 2.84.

Take `Cc1cccc(C)n1` [Example A5, 2,6-lutidine]: the pKa was determined as 6.6.

`Cc1cc(C)nc(C)c1` [Example A6, 2,4,6-trimethylpyridine] showed a pKa of 7.48. Consider `CCCCCCCCN(CCCCCCCC)CCCCCCCC` [Example A7, trioctylamine], for which the pKa stood at 8.35.
